Measured values reported in PMC10620772, “Design, synthesis, and biological evaluation of new pyrimidine-5-carbonitrile derivatives as novel anti-cancer, dual EGFR^WT/COX-2 inhibitors with docking studies” (RSC Advances, 2023).

Columns and labels:
Test in all cases: NCI60 antitumor screening
Format in all cases: cell-based, human
CCRF-CEM = settings: Homo sapiens; 10 μM single dose; CCRF-CEM (leukaemia); read-out: growth inhibition percent (GI%)
NCI-H322M = settings: Homo sapiens; 10 μM single dose; NCI-H322M (non-small cell lung cancer); read-out: growth inhibition percent (GI%)
786–0 = settings: Homo sapiens; 10 μM single dose; 786–0 (renal cancer); read-out: growth inhibition percent (GI%)
ACHN = settings: Homo sapiens; 10 μM single dose; ACHN (renal cancer); read-out: growth inhibition percent (GI%)
DU-145 = settings: Homo sapiens, DU-145; read-out: growth inhibition percent (GI%)
RPMI-8226 = settings: Homo sapiens; 10 μM single dose; RPMI-8226 (leukaemia); read-out: growth inhibition percent (GI%)
MDA-MB-468 = settings: Homo sapiens; 10 μM single dose; MDA-MB-468 (breast cancer); read-out: growth inhibition percent (GI%)
HOP-62 = settings: Homo sapiens; 10 μM single dose; HOP-62 (non-small cell lung cancer); read-out: growth inhibition percent (GI%)
NCI/ADR-RES = settings: Homo sapiens; 10 μM single dose; NCI/ADR-RES (ovarian cancer); read-out: growth inhibition percent (GI%)
MALME-3M = settings: Homo sapiens; 10 μM single dose; MALME-3M (melanoma); read-out: growth inhibition percent (GI%)
MCF7 = settings: Homo sapiens; 10 μM single dose; MCF7 (breast cancer); read-out: growth inhibition percent (GI%)
SF-539 = settings: Homo sapiens; 10 μM single dose; SF-539 (CNS cancer); read-out: growth inhibition percent (GI%)
COLO 205 = settings: Homo sapiens; 10 μM single dose; COLO 205 (colon cancer); read-out: growth inhibition percent (GI%)
HCC-2998 = settings: Homo sapiens; 10 μM single dose; HCC-2998 (colon cancer); read-out: growth inhibition percent (GI%)
OVCAR-4 = settings: Homo sapiens; 10 μM single dose; OVCAR-4 (ovarian cancer); read-out: growth inhibition percent (GI%)
UO-31 = settings: Homo sapiens; 10 μM single dose; UO-31 (renal cancer); read-out: growth inhibition percent (GI%)
SK-MEL-5 = settings: Homo sapiens; 10 μM single dose; SK-MEL-5 (melanoma); read-out: growth inhibition percent (GI%)
MOLT-4 = settings: Homo sapiens; 10 μM single dose; MOLT-4 (leukaemia); read-out: growth inhibition percent (GI%)
HOP-92 = settings: Homo sapiens; 10 μM single dose; HOP-92 (non-small cell lung cancer); read-out: growth inhibition percent (GI%)
PC-3 = settings: Homo sapiens; 10 μM single dose; PC-3 (prostate cancer); read-out: growth inhibition percent (GI%)
SK-OV-3 = settings: Homo sapiens; 10 μM single dose; SK-OV-3 (ovarian cancer); read-out: growth inhibition percent (GI%)
HS 578T = settings: Homo sapiens; 10 μM single dose; HS 578T (breast cancer); read-out: growth inhibition percent (GI%)
SF-268 = settings: Homo sapiens; 10 μM single dose; SF-268 (CNS cancer); read-out: growth inhibition percent (GI%)
K-562 = settings: Homo sapiens; 10 μM single dose; (leukaemia); read-out: growth inhibition percent (GI%)
OVCAR-8 = settings: Homo sapiens; 10 μM single dose; OVCAR-8 (ovarian cancer); read-out: growth inhibition percent (GI%)
SK-MEL-2 = settings: Homo sapiens; 10 μM single dose; SK-MEL-2 (melanoma); read-out: growth inhibition percent (GI%)
SNB-19 = settings: Homo sapiens; 10 μM single dose; SNB-19 (CNS cancer); read-out: growth inhibition percent (GI%)
UACC-257 = settings: Homo sapiens; 10 μM single dose; UACC-257 (melanoma); read-out: growth inhibition percent (GI%)
NCI-H23 = settings: Homo sapiens; 10 μM single dose; NCI-H23 (non-small cell lung cancer); read-out: growth inhibition percent (GI%)
NCI-H522 = settings: Homo sapiens; 10 μM single dose; NCI-H522 (non-small cell lung cancer); read-out: growth inhibition percent (GI%)
SK-MEL-28 = settings: Homo sapiens; 10 μM single dose; SK-MEL-28 (melanoma); read-out: growth inhibition percent (GI%)
NCI-H460 = settings: Homo sapiens; 10 μM single dose; NCI-H460 (non-small cell lung cancer); read-out: growth inhibition percent (GI%)
SNB-75 = settings: Homo sapiens; 10 μM single dose; SNB-75 (CNS cancer); read-out: growth inhibition percent (GI%)
SN12C = settings: Homo sapiens; 10 μM single dose; SN12C (renal cancer); read-out: growth inhibition percent (GI%)
HCT-116 = settings: Homo sapiens; 10 μM single dose; HCT-116 (colon cancer); read-out: growth inhibition percent (GI%)

N#Cc1c(-c2ccc(F)cc2)nc(SCc2ccc(F)cc2)nc1N1CCN(c2ccccc2)CC1 [4n, 2-((4-Fluorobenzyl)thio)-4-(4-fluorophenyl)-6-(4-phenylpiperazin-1-yl)pyrimidine-5-carbonitrile]
inhibition at 10 µM (CCRF-CEM): 16.6%
inhibition at 10 µM (NCI-H322M): < 10%
inhibition at 10 µM (786–0): < 10%
inhibition at 10 µM (ACHN): < 10%
inhibition at 10 µM (DU-145): < 10%
inhibition at 10 µM (RPMI-8226): 22.3%
inhibition at 10 µM (MDA-MB-468): < 10%
inhibition at 10 µM (HOP-62): < 10%
inhibition at 10 µM (NCI/ADR-RES): < 10%
inhibition at 10 µM (MALME-3M): < 10%
inhibition at 10 µM (MCF7): 24.8%
inhibition at 10 µM (SF-539): < 10%
inhibition at 10 µM (COLO 205): < 10%
inhibition at 10 µM (HCC-2998): < 10%
inhibition at 10 µM (OVCAR-4): 10.4%
inhibition at 10 µM (UO-31): < 10%
inhibition at 10 µM (SK-MEL-5): 12.4%
inhibition at 10 µM (MOLT-4): 12.4%
inhibition at 10 µM (HOP-92): < 10%
inhibition at 10 µM (PC-3): 25.2%
inhibition at 10 µM (SK-OV-3): < 10%
inhibition at 10 µM (HS 578T): < 10%
inhibition at 10 µM (SF-268): 14.1%
inhibition at 10 µM (K-562): 12.5%
inhibition at 10 µM (OVCAR-8): < 10%
inhibition at 10 µM (SK-MEL-2): 10.6%
inhibition at 10 µM (SNB-19): < 10%
inhibition at 10 µM (UACC-257): 12.9%
inhibition at 10 µM (NCI-H23): < 10%
inhibition at 10 µM (NCI-H522): 10.3%
inhibition at 10 µM (SK-MEL-28): < 10%
inhibition at 10 µM (NCI-H460): < 10%
inhibition at 10 µM (SNB-75): 15.6%
inhibition at 10 µM (SN12C): < 10%
inhibition at 10 µM (HCT-116): 11.8%
